Tests used:
Test in all cases: Bliss interaction score (quartile over a dose matrix) (fitness difference); higher = more antagonism (negative = synergy)
[1] = test system: S. aureus Newman
Outline: (§1)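 The Bliss score is observed fitness minus expected fitness, where the expected value is the product of single-drug fitness values inferred from combination data. Fitness is OD595 at entry into stationary phase normalised to the plate's robust no-drug mean and capped at 1. Scores are reported as quartiles spanning technical, biological and donor/recipient replicates.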

[2] = test system: S. aureus DSM 20231
Outline: as §1

[3] = test system: B. subtilis 168
Outline: as §1

[4] = test system: S. pneumoniae D39V
Outline: as §1
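Further: first quartile when negative (synergy) and third quartile when positive (antagonism).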

Structure (SMILES)	Bliss interaction score ([1]; main component drawn)	Bliss interaction score ([2]; main component drawn)	Bliss interaction score ([3]; main component drawn)	Bliss interaction score ([4]; main component drawn)	Bliss interaction score [1]	Bliss interaction score [2]	Bliss interaction score [3]	Bliss interaction score [4]
CC[C@H](C)[C@H](N)C1=N[C@H](C(=O)N[C@@H](CC(C)C)C(=O)N[C@H](CCC(=O)O)C(=O)N[C@H](C(=O)N[C@H]2CCCCNC(=O)[C@H](CC(N)=O)NC(=O)[C@@H](CC(=O)O)NC(=O)[C@H](Cc3cnc[nH]3)NC(=O)[C@@H](Cc3ccccc3)NC(=O)[C@H]([C@@H](C)CC)NC(=O)[C@@H](CCCN)NC2=O)[C@@H](C)CC)CS1 [Bacitracin] + CN[C@H](CC(C)C)C(=O)N[C@H]1C(=O)N[C@@H](CC(N)=O)C(=O)N[C@H]2C(=O)N[C@H]3C(=O)N[C@H](C(=O)N[C@H](C(=O)O)c4cc(O)cc(O)c4-c4cc3ccc4O)[C@H](O[C@H]3C[C@](C)(N)[C@@H](O)[C@H](C)O3)c3ccc(c(Cl)c3)Oc3cc2cc(c3O[C@@H]2O[C@H](CO)[C@@H](O)[C@H](O)[C@H]2O[C@H]2C[C@](C)(NCc3ccc(-c4ccc(Cl)cc4)cc3)[C@@H](O)[C@H](C)O2)Oc2ccc(cc2Cl)[C@H]1O [Oritavancin]	0.084	-0.0199	-0.0398	0.0372				
CC[C@H](C)[C@H](N)C1=N[C@H](C(=O)N[C@@H](CC(C)C)C(=O)N[C@H](CCC(=O)O)C(=O)N[C@H](C(=O)N[C@H]2CCCCNC(=O)[C@H](CC(N)=O)NC(=O)[C@@H](CC(=O)O)NC(=O)[C@H](Cc3cnc[nH]3)NC(=O)[C@@H](Cc3ccccc3)NC(=O)[C@H]([C@@H](C)CC)NC(=O)[C@@H](CCCN)NC2=O)[C@@H](C)CC)CS1 [Bacitracin] + CO[C@@]12[C@H](COC(N)=O)C3=C(C(=O)C(C)=C(N)C3=O)N1C[C@@H]1N[C@@H]12 [MitomycinC]	-0.0961	-0.0743	-0.0673	-0.0853				
CC[C@H](C)[C@H](N)C1=N[C@H](C(=O)N[C@@H](CC(C)C)C(=O)N[C@H](CCC(=O)O)C(=O)N[C@H](C(=O)N[C@H]2CCCCNC(=O)[C@H](CC(N)=O)NC(=O)[C@@H](CC(=O)O)NC(=O)[C@H](Cc3cnc[nH]3)NC(=O)[C@@H](Cc3ccccc3)NC(=O)[C@H]([C@@H](C)CC)NC(=O)[C@@H](CCCN)NC2=O)[C@@H](C)CC)CS1 [Bacitracin] + CO[C@H]1/C=C/O[C@@]2(C)Oc3c(C)c(O)c4c(O)c(c(/C=N/N5CCN(C)CC5)c(O)c4c3C2=O)NC(=O)/C(C)=C\C=C\[C@H](C)[C@H](O)[C@@H](C)[C@@H](O)[C@@H](C)[C@H](OC(C)=O)[C@@H]1C [Rifampicin]	-0.0236	0.0174	-0.0806	0.104				
CC[C@H](C)[C@H](N)C1=N[C@H](C(=O)N[C@@H](CC(C)C)C(=O)N[C@H](CCC(=O)O)C(=O)N[C@H](C(=O)N[C@H]2CCCCNC(=O)[C@H](CC(N)=O)NC(=O)[C@@H](CC(=O)O)NC(=O)[C@H](Cc3cnc[nH]3)NC(=O)[C@@H](Cc3ccccc3)NC(=O)[C@H]([C@@H](C)CC)NC(=O)[C@@H](CCCN)NC2=O)[C@@H](C)CC)CS1 [Bacitracin] + C[C@@H](O)[C@H]1C(=O)N2C(C(=O)O)=C(SCCNC=N)C[C@H]12 [Imipenem]	-0.0113	0.0207	-0.359	-0.0576				
CC[C@H](C)[C@H](N)C1=N[C@H](C(=O)N[C@@H](CC(C)C)C(=O)N[C@H](CCC(=O)O)C(=O)N[C@H](C(=O)N[C@H]2CCCCNC(=O)[C@H](CC(N)=O)NC(=O)[C@@H](CC(=O)O)NC(=O)[C@H](Cc3cnc[nH]3)NC(=O)[C@@H](Cc3ccccc3)NC(=O)[C@H]([C@@H](C)CC)NC(=O)[C@@H](CCCN)NC2=O)[C@@H](C)CC)CS1 [Bacitracin] + Clc1ccc(COC(Cn2ccnc2)c2ccc(Cl)cc2Cl)c(Cl)c1 [Miconazole]	-0.0691	-0.0238	-0.0878	0.113				
CC[C@H](C)[C@H](N)C1=N[C@H](C(=O)N[C@@H](CC(C)C)C(=O)N[C@H](CCC(=O)O)C(=O)N[C@H](C(=O)N[C@H]2CCCCNC(=O)[C@H](CC(N)=O)NC(=O)[C@@H](CC(=O)O)NC(=O)[C@H](Cc3cnc[nH]3)NC(=O)[C@@H](Cc3ccccc3)NC(=O)[C@H]([C@@H](C)CC)NC(=O)[C@@H](CCCN)NC2=O)[C@@H](C)CC)CS1 [Bacitracin] + N[C@@H]1CONC1=O [CycloserineD]	0.0872	-0.0841	0.0719	0.118				
CC[C@H](C)[C@H](N)C1=N[C@H](C(=O)N[C@@H](CC(C)C)C(=O)N[C@H](CCC(=O)O)C(=O)N[C@H](C(=O)N[C@H]2CCCCNC(=O)[C@H](CC(N)=O)NC(=O)[C@@H](CC(=O)O)NC(=O)[C@H](Cc3cnc[nH]3)NC(=O)[C@@H](Cc3ccccc3)NC(=O)[C@H]([C@@H](C)CC)NC(=O)[C@@H](CCCN)NC2=O)[C@@H](C)CC)CS1 [Bacitracin] + O=C1CN(/N=C/c2ccc([N+](=O)[O-])o2)C(=O)N1 [Nitrofurantoin]	0.0654	-0.0336	-0.192	-0.0709				
CC[C@H](C)[C@H](N)C1=N[C@H](C(=O)N[C@@H](CC(C)C)C(=O)N[C@H](CCC(=O)O)C(=O)N[C@H](C(=O)N[C@H]2CCCCNC(=O)[C@H](CC(N)=O)NC(=O)[C@@H](CC(=O)O)NC(=O)[C@H](Cc3cnc[nH]3)NC(=O)[C@@H](Cc3ccccc3)NC(=O)[C@H]([C@@H](C)CC)NC(=O)[C@@H](CCCN)NC2=O)[C@@H](C)CC)CS1 [Bacitracin] + O=C(O)[C@H]1/C(=C/CO)O[C@@H]2CC(=O)N21 [Clavulanic]	0.241	-0.0375	0.107	-0.0867				
CC[C@H](C)[C@H](N)C1=N[C@H](C(=O)N[C@@H](CC(C)C)C(=O)N[C@H](CCC(=O)O)C(=O)N[C@H](C(=O)N[C@H]2CCCCNC(=O)[C@H](CC(N)=O)NC(=O)[C@@H](CC(=O)O)NC(=O)[C@H](Cc3cnc[nH]3)NC(=O)[C@@H](Cc3ccccc3)NC(=O)[C@H]([C@@H](C)CC)NC(=O)[C@@H](CCCN)NC2=O)[C@@H](C)CC)CS1 [Bacitracin] + Oc1cc(Cl)ccc1Oc1ccc(Cl)cc1Cl [Triclosan]	-0.0148	0.0303	-0.136	0.056				
CC[C@H]1OC(=O)[C@H](C)[C@@H](O[C@H]2C[C@@](C)(OC)[C@@H](O)[C@H](C)O2)[C@H](C)[C@@H](O[C@@H]2O[C@H](C)C[C@H](N(C)C)[C@H]2O)[C@](C)(O)C[C@@H](C)C(=O)[C@H](C)[C@@H](O)[C@]1(C)O [Erythromycin] + C/C(=C\C(=O)OCCCCCCCCC(=O)O)C[C@@H]1OC[C@H](C[C@@H]2O[C@H]2[C@@H](C)[C@H](C)O)[C@@H](O)[C@H]1O [Pseudomonic acid]					-0.0171	-0.0124	0.0626	0.0664
CC[C@H]1OC(=O)[C@H](C)[C@@H](O[C@H]2C[C@@](C)(OC)[C@@H](O)[C@H](C)O2)[C@H](C)[C@@H](O[C@@H]2O[C@H](C)C[C@H](N(C)C)[C@H]2O)[C@](C)(O)C[C@@H](C)C(=O)[C@H](C)[C@@H](O)[C@]1(C)O [Erythromycin] + CC1(C)S[C@@H]2[C@H](NC(=O)Cc3ccccc3)C(=O)N2[C@H]1C(=O)O [PenicillinG]					-0.0654	0.0265	0.0463	-0.0381
CC[C@H]1OC(=O)[C@H](C)[C@@H](O[C@H]2C[C@@](C)(OC)[C@@H](O)[C@H](C)O2)[C@H](C)[C@@H](O[C@@H]2O[C@H](C)C[C@H](N(C)C)[C@H]2O)[C@](C)(O)C[C@@H](C)C(=O)[C@H](C)[C@@H](O)[C@]1(C)O [Erythromycin] + CC1=C\[C@@H](O)CC(=O)Cc2nc(co2)C(=O)N2CCC=C2C(=O)O[C@H](C(C)C)[C@H](C)/C=C/C(=O)NC\C=C\1 [Virginiamycin M1]					0.066	0.0769	-0.0578	0.0687
CC[C@H]1OC(=O)[C@H](C)[C@@H](O[C@H]2C[C@@](C)(OC)[C@@H](O)[C@H](C)O2)[C@H](C)[C@@H](O[C@@H]2O[C@H](C)C[C@H](N(C)C)[C@H]2O)[C@](C)(O)C[C@@H](C)C(=O)[C@H](C)[C@@H](O)[C@]1(C)O [Erythromycin] + CC(=O)NC[C@H]1CN(c2ccc(N3CCOCC3)c(F)c2)C(=O)O1 [Linezolid]					-0.0521	-0.018	-0.0534	0.068
CC[C@H]1OC(=O)[C@H](C)[C@@H](O[C@H]2C[C@@](C)(OC)[C@@H](O)[C@H](C)O2)[C@H](C)[C@@H](O[C@@H]2O[C@H](C)C[C@H](N(C)C)[C@H]2O)[C@](C)(O)C[C@@H](C)C(=O)[C@H](C)[C@@H](O)[C@]1(C)O [Erythromycin] + CC(=O)O[C@H]1C[C@@]2(C)[C@@H](C[C@@H](O)[C@H]3[C@@]4(C)CC[C@@H](O)[C@@H](C)[C@@H]4CC[C@@]32C)/C1=C(\CCC=C(C)C)C(=O)O [Fusidic acid]					-0.0241	0.0374	-0.057	-0.1
CC[C@H]1OC(=O)[C@H](C)[C@@H](O[C@H]2C[C@@](C)(OC)[C@@H](O)[C@H](C)O2)[C@H](C)[C@@H](O[C@@H]2O[C@H](C)C[C@H](N(C)C)[C@H]2O)[C@](C)(O)C[C@@H](C)C(=O)[C@H](C)[C@@H](O)[C@]1(C)O [Erythromycin] + CC(C1CCC(C(O1)OC2C(CC(C(C2O)OC3C(C(C(CO3)(C)O)NC)O)N)N)N)NC [Gentamicin]	0.0427	0.0847	0.118	0.0656				
CC[C@H]1OC(=O)[C@H](C)[C@@H](O[C@H]2C[C@@](C)(OC)[C@@H](O)[C@H](C)O2)[C@H](C)[C@@H](O[C@@H]2O[C@H](C)C[C@H](N(C)C)[C@H]2O)[C@](C)(O)C[C@@H](C)C(=O)[C@H](C)[C@@H](O)[C@]1(C)O [Erythromycin] + CCC(C)C1C(=O)NC(=C)C(=O)NC(C(=O)NC(CSCC(C(=O)N1)NC(=O)/C(=C/C)/NC(=O)C(C(C)CC)N)C(=O)NC2C(SCC(NC(=O)CNC(=O)C3CCCN3C2=O)C(=O)NC(CCCCN)C(=O)NC4C(SCC(NC(=O)CNC(=O)C(NC(=O)C(NC(=O)C(NC(=O)CNC4=O)C)CC(C)C)CCSC)C(=O)NC(CC(=O)N)C(=O)NC(CCSC)C(=O)NC(CCCCN)C(=O)NC5C(SCC6C(=O)NC(C(=O)NC(CSC(C(C(=O)N6)NC(=O)C(NC5=O)C)C)C(=O)NC(CO)C(=O)NC(C(C)CC)C(=O)NC(CC7=CN=CN7)C(=O)NC(C(C)C)C(=O)NC(=C)C(=O)NC(CCCCN)C(=O)O)CC8=CN=CN8)C)C)C)CC(C)C [Nisin]	-0.028	-0.029	0.0295	-0.0423				
CC[C@H]1OC(=O)[C@H](C)[C@@H](O[C@H]2C[C@@](C)(OC)[C@@H](O)[C@H](C)O2)[C@H](C)[C@@H](O[C@@H]2O[C@H](C)C[C@H](N(C)C)[C@H]2O)[C@](C)(O)C[C@@H](C)C(=O)[C@H](C)[C@@H](O)[C@]1(C)O [Erythromycin] + CCCCCCCCCC(=O)N[C@@H]1[C@H]([C@@H]([C@H](O[C@H]1OC2=C3C=C4C=C2OC5=C(C=C(C=C5)[C@H]([C@H]6C(=O)N[C@@H](C7=C(C(=CC(=C7)O)OC8[C@H]([C@H]([C@@H]([C@H](O8)CO)O)O)O)C9=C(C=CC(=C9)[C@H](C(=O)N6)NC(=O)[C@@H]4NC(=O)[C@@H]1C2=CC(=CC(=C2)OC2=C(C=CC(=C2)[C@H](C(=O)N[C@H](CC2=CC(=C(O3)C=C2)Cl)C(=O)N1)N)O)O)O)C(=O)O)O[C@H]1[C@@H]([C@H]([C@@H]([C@H](O1)CO)O)O)NC(=O)C)Cl)CO)O)O [Teicoplanin]	0.154	0.0621	-0.046	0.0581				

Source: the supplement of paper PMC10627819
